Experimental data published in ChEMBL document CHEMBL1129399, “N-aryl-3,3,3-trifluoro-2-hydroxy-2-methylpropanamides: KATP potassium channel openers. Modifications on the western region” (J Med Chem, 1996).

Tests used:
[1] = system: Rattus norvegicus; assay: in vivo activity was evaluated by measuring heart rate(HR) after 1 hour.; format: functional
[2] = system: Rattus norvegicus; assay: in vivo activity was evaluated by measuring interval between bladder contractions (IC) after 5 hour.; format: functional
[3] = system: Rattus norvegicus; assay: in vivo activity was evaluated by measuring interval between bladder contractions (IC) after 3 hour.; format: functional
[4] = system: Rattus norvegicus; assay: in vivo activity was evaluated by measuring interval between bladder contractions (IC) after 1 hour.; format: functional
[5] = system: Rattus norvegicus; assay: in vivo activity was evaluated by measuring mean arterial pressure(MAP) after 3 hour.; format: functional, Artery
[6] = system: Rattus norvegicus; assay: in vivo activity was evaluated by measuring mean arterial pressure(MAP) after 1 hour.; format: functional, Artery
[7] = system: Rattus norvegicus; assay: in vivo activity was evaluated by measuring heart rate(HR) after 3 hour.; format: functional
[8] = system: Rattus norvegicus; assay: in vivo activity was evaluated by measuring mean arterial pressure(MAP) after 5 hour.; format: functional, Artery
[9] = system: Rattus norvegicus; assay: in vivo activity was evaluated by measuring heart rate(HR) after 5 hour.; format: functional
[10] = system: Rattus norvegicus; assay: in vivo activity was evaluated by measuring interval between bladder contractions (IC) after 1 hour.
[11] = system: Rattus norvegicus; assay: In vivo activity was evaluated by measuring heart rate(HR) after 1 hour; format: functional
[12] = system: Rattus norvegicus; assay: In vivo activity was evaluated by measuring heart rate(HR) after 3 hours; format: functional
[13] = system: Rattus norvegicus; assay: In vivo activity was evaluated by measuring interval between bladder contractions (IC) after 1 hour; format: functional
[14] = system: Rattus norvegicus; assay: In vivo activity was evaluated by measuring mean arterial pressure(MAP) after 1 hour; format: functional, Artery
[15] = system: Rattus norvegicus; assay: In vivo activity was evaluated by measuring interval between bladder contractions (IC) after 5 hours; format: functional
[16] = system: Rattus norvegicus; assay: In vivo activity was evaluated by measuring interval between bladder contractions (IC) after 3 hours; format: functional
[17] = system: Rattus norvegicus; assay: In vivo activity was evaluated by measuring mean arterial pressure(MAP) after 5 hours; format: functional, Artery
[18] = system: Rattus norvegicus; assay: In vivo activity was evaluated by measuring heart rate(HR) after 5 hours; format: functional
[19] = system: Rattus norvegicus; assay: In vivo activity was evaluated by measuring mean arterial pressure(MAP) after 3 hours; format: functional, Artery
[20] = system: Rattus norvegicus; assay: In vivo activity was evaluated by measuring mean arterial pressure (MAP) after 1 hour.; format: functional, Artery
[21] = system: Rattus norvegicus; assay: In vivo activity was evaluated by measuring heart rate(HR) after 5 hour.; format: functional
[22] = system: Rattus norvegicus; assay: In vivo activity was evaluated by measuring interval between bladder contractions (IC) after 1 hour.; format: functional
[23] = system: Rattus norvegicus; assay: In vivo activity was evaluated by measuring mean arterial pressure(MAP) after 3 hour.; format: functional, Artery
[24] = system: Rattus norvegicus; assay: In vivo activity was evaluated by measuring interval between bladder contractions (IC) after 3 hour.; format: functional
[25] = system: Rattus norvegicus; assay: In vivo activity was evaluated by measuring heart rate(HR) after 1 hour.; format: functional
[26] = system: Rattus norvegicus; assay: In vivo activity was evaluated by measuring interval between bladder contractions (IC) after 5 hour.; format: functional
[27] = system: Rattus norvegicus; assay: In vivo activity was evaluated by measuring heart rate(HR) after 3 hour.; format: functional
[28] = system: Rattus norvegicus; assay: In vivo activity was evaluated by measuring mean arterial pressure(MAP) after 5 hour.; format: functional, Artery
[29] = system: Rattus norvegicus; assay: In vivo activity was evaluated by measuring interval between bladder contractions (IC) after 1 hours; format: functional
[30] = system: Rattus norvegicus; assay: In vivo activity was evaluated by measuring mean arterial pressure(MAP) after 1 hour.; format: functional, Artery

Compound | Delta HR [1] [%] | Delta IC [2] [%] | Delta IC [3] [%] | Delta IC [4] [%] | Delta MAP [5] [%] | Delta MAP [6] [%] | Delta HR [7] [%] | Delta MAP [8] [%] | Delta HR [9] [%] | also measured
CC(O)(C(=O)Nc1ccc(S(=O)(=O)c2cccnc2)cc1)C(F)(F)F (stereo unspecified) | 19 | 125 | 83 | 64 | -14 | -16 | 3 | -11 | -2 | –
CN(c1ccccc1)S(=O)(=O)c1ccc(NC(=O)C(C)(O)C(F)(F)F)cc1 (stereo unspecified) | -1 | 56 | 33 | 30 | -3 | -1 | 4 | -4 | 1 | –
Cc1cc(C(=O)c2ccccc2)ccc1NC(=O)C(C)(O)C(F)(F)F (stereo unspecified) | 0 | 71 | 50 | – | -4 | -3 | -1 | -4 | 1 | Delta IC [10]: 26%
CC(O)(C(=O)Nc1ccc(S(=O)(=O)c2ccccc2)cc1)C(F)(F)F (stereo unspecified) | – | – | – | – | – | – | – | – | – | Delta HR [11]: 32%; Delta HR [12]: 27%; Delta IC [13]: 24%; Delta MAP [14]: -25%; Delta IC [15]: 97%; Delta IC [16]: 79%; Delta MAP [17]: 23%; Delta HR [18]: -22%; Delta MAP [19]: -24%
CC(O)(C(=O)Nc1ccc(C(=O)c2cccc(F)c2)cc1)C(F)(F)F (stereo unspecified) | 9 | 61 | 56 | – | 2 | 4 | 4 | 1 | 6 | Delta IC [10]: 25%
CC(O)(C(=O)Nc1ccc(S(=O)(=O)c2ccncc2)c(O)c1)C(F)(F)F (stereo unspecified) | 2 | 95 | 42 | 25 | 1 | 1 | 2 | -4 | 6 | –
CC(O)(C(=O)Nc1ccc(C(=O)c2ccccc2)cc1)C(F)(F)F (stereo unspecified) | – | – | – | – | – | – | – | – | – | Delta MAP [20]: -1%; Delta HR [21]: -4%; Delta IC [22]: 35%; Delta MAP [23]: 1%; Delta IC [24]: 73%; Delta HR [25]: 2%; Delta IC [26]: 128%; Delta HR [27]: -3%; Delta MAP [28]: 2%
CC(O)(C(=O)Nc1ccc(S(=O)(=O)c2ccncc2)cc1)C(F)(F)F (stereo unspecified) | 5 | 76 | 76 | 20 | 5 | 4 | 1 | 1 | 0 | –
CC1(C)Oc2ccc(C#N)cc2[C@@H](N2CCCC2=O)[C@@H]1O [CROMAKALIM] | – | – | – | – | – | – | – | – | – | Delta IC [29]: 54%; Delta MAP [30]: -18%; Delta MAP [23]: -14%; Delta IC [24]: 104%; Delta HR [25]: 20%; Delta HR [18]: 9%; Delta IC [26]: 114%; Delta HR [27]: 13%; Delta MAP [28]: -12%
